This note sets out measurements from the METLIN SMRT retention time set (Domingo-Almenara et al. 2019).

The nature of the series: gradient 5% acetonitrile 3 min, to 50% in 2 min, to 85% in 15 min, held 3 min, 100 µL/min. The settings on record: column: Zorbax Extend-C18 2.1 x 50 mm; eluents: water / acetonitrile, 0.1% formic acid. A digest of the protocol: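 The system's dead and dwell volumes were 40 μL and 900 μL, with a Zorbax Extend-C18 column (2.1 × 50 mm, 1.8 μm) run at 100 μL/min in water and acetonitrile containing 0.1% formic acid each. Pure standards were analyzed in mixtures of ~100 molecules by HPLC–quadrupole time-of-flight mass spectrometry in positive and negative ionization mode. Retention time was assigned from computationally picked, manually inspected adduct peaks.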
Take `Cc1ccc(NS(=O)(=O)c2ccc(-c3nnc(C4CCC4)o3)o2)cc1`: the RP-LC retention time was 926 s.
Under `Cc1ccc(S(=O)(=O)N2CC3CN(C(=O)COc4cccc(C)c4)CC(C2)O3)cc1` stands 928 s; under `CCCN(CCC)C(=O)C1COC2(CCN(C(=O)c3ccco3)CC2)N1C(=O)c1ccccc1` (stereo not drawn), 778 s; under `Cc1cc(-c2nnc(-c3ccc(F)cc3)o2)c(C)n1CC(=O)Nc1ccc(F)c(F)c1`, 1040 s.
For the molecule `Cc1c(-c2noc(-c3cccc(F)c3)n2)nnn1Cc1ccccc1`, the RP-LC retention time stood at 1080 s.
As for `CC(=O)c1cccc(NC(=O)N2C[C@H](c3nc(-c4ccncc4)no3)[C@@H](C)C2)c1`, the RP-LC retention time was determined as 674 s.
As for `Cc1nc2ccccn2c(=O)c1Cc1nnc(SCc2cc(=O)c3cccc(C)c3[nH]2)n1C`, the RP-LC retention time was determined as 599 s.
The value for `O=S(=O)(Nc1cccc(-c2nc(-c3cccc(Br)c3)co2)c1)c1cccs1` was 1230 s; that for `Cc1nn(CC(=O)NCCC(C)C)c(=O)c2nc(-c3ccccc3)sc12` was 871 s.
Under `O=C(Nc1ccccc1F)NC1CCCN(c2cc(-c3ccncc3)[nH]n2)C1` (stereo not drawn) stands 621 s.
For `CCOC(=O)c1nc(NCCc2ccccc2)c2ccccc2n1`, the RP-LC retention time stood at 769 s.
The value for `Cc1c(S(=O)(=O)NC2CCCc3ccccc32)cc(C(=O)N2CCCCC2)n1C` (stereo not drawn) was 907 s; that for `Cc1nc2ccccc2c(=O)n1Cc1noc(C(=O)NCCC2=CCCCC2)n1` was 915 s; that for `Cc1nnsc1C(=O)NCc1c(F)cccc1Cl` was 861 s.
Under `CCNC(=O)NS(=O)(=O)c1sc(CC(C)C)cc1-c1ccc(Cn2c(-c3ccccc3)nc(OC)c2C=O)cc1` stands 1280 s; under `COC(=O)C1=CN(c2ccc(OC)c(OC)c2)c2ccc(F)cc2S1(=O)=O`, 788 s.
With `COc1ccc(-c2c(C(=O)O)nnn2-c2ccc(OC)c(OC)c2)cc1`, the RP-LC retention time was 712 s.
The value for `COCCn1cc(C(=O)NCC(C)C)c2nn(-c3ccccc3)c(=O)c-2c1` was 851 s; that for `CCC1Cn2c(C(=O)NCCc3c[nH]c4ccccc34)cc3c(Cl)ccc(c32)O1` (stereo not drawn) was 1220 s; that for `CCC1(c2ccccc2)NC(=O)N(C)C1=O` (stereo not drawn) was 794 s.
Under `Cc1noc(-c2ccnc(-n3cnc(C(=O)NCCc4ccccc4)c3)c2)n1` stands 823 s; under `COc1ccc(C(=O)N2CCN(c3ccc(=O)n(-c4cccc(Cl)c4)n3)CC2)cc1OC`, 784 s.
`COc1ccc(-c2c(C)noc2NC(C)=O)cc1S(=O)(=O)NCc1ccc(C)cc1`: the RP-LC retention time was 784 s.
For the molecule `O=C(NCc1cccnc1)C1CC(=O)N(c2ccc3c(c2)CCN3C(=O)C2CCC2)C1` (stereo not drawn), the RP-LC retention time turned out to be 598 s.
Under `CCc1nc2cccnc2n1CCN1CCN(C(=O)Nc2cc(C)ccc2C)CC1` stands 598 s.
Under `O=C(C1CCN(S(=O)(=O)c2cc(-c3noc(C4CCC4)n3)cs2)CC1)N1CCc2ccccc21` stands 1150 s; under `Cc1cc(S(=O)(=O)N2CCN(c3nc4ccncc4n(C)c3=O)CC2)ccc1F`, 682 s; under `O=C(O)C1CCN(c2ncnc3nc[nH]c23)CC1`, 548 s.
`O=C(OCc1ccncc1)c1cn(-c2cccc(Cl)c2)c(=O)c2ccccc12` yielded an RP-LC retention time of 770 s.
Under `COc1ccc2c(c1)OC1(C)CC2C(S(=O)(=O)c2ccc(C)c(C)c2)C(=O)N1` (stereo not drawn) stands 934 s.
The value for `Cc1ccc(S(=O)(=O)c2cnc(N3CCN(c4cc(Cl)ccc4C)CC3)nc2N)cc1C` was 1420 s; that for `CC(=O)Nc1ccc(N2C(=O)c3cccc4c([N+](=O)[O-])ccc(c34)C2=O)cc1` was 714 s.
Under `O=C(c1ccco1)N1CCN(C(=O)c2nnn3c2COC(c2ccccc2)C3)CC1` (stereo not drawn) stands 762 s; under `O=c1ccc(-c2ccncc2)nn1CCCNS(=O)(=O)/C=C/c1ccccc1`, 582 s.
`Cc1cc2c(cc1S(=O)(=O)N1CCCC1C(=O)Nc1ccc(F)cc1)OC(C)C(=O)N2` (stereo not drawn) gave an RP-LC retention time of 775 s.
The value for `Cn1cccc1-c1noc(C2CCN(C(=O)C3(c4ccccc4)CC3)C2)n1` (stereo not drawn) was 931 s; that for `COCc1cc(=O)n(CC(=O)Nc2ccc(C)cc2C)c(N)n1` was 584 s.
The molecule `O=C(CSc1ncnc2c1nnn2Cc1ccc(F)cc1)N1CCCC1` yielded an RP-LC retention time of 764 s.
Under `CC(NC(=O)c1ccc(-c2ccnc(N3CCCCC3)n2)cc1)c1cccnc1` (stereo not drawn) stands 651 s; under `CCN(CC)C(=O)c1cnc2nc(C)ccc2c1Nc1ccc2c(c1)OCCO2`, 601 s.
Under `CC(C(=O)N1CCN(c2ccccn2)CC1)n1c(=O)c(C(F)(F)F)nc2ccccc21` (stereo not drawn) stands 696 s; under `Cc1nnc(-c2cc(C)n(CC(=O)Nc3cccc(Cl)c3)c2C)o1`, 805 s; under `COc1ccc(NC(=O)Cc2nnc(-c3ccc4ncccc4c3)o2)cc1`, 685 s.
Under `COc1ncccc1CNC(=O)Cc1cccnc1` stands 538 s; under `CCN(C(=O)c1ccc(C)cc1)c1nc(-c2ccc(C)cc2)cs1`, 1320 s; under `CCc1nnc(NC(=O)CSc2nccn2Cc2ccc3c(c2)OCO3)s1`, 586 s.
Take `CCOc1ccc(C(=O)c2ccc(Cl)c(N)c2)cc1`: the RP-LC retention time stood at 935 s.
The value for `CCCN(C)C[C@@H]1CC(F)(F)CN1C1CCN(S(=O)(=O)c2ccccc2C)CC1` was 620 s; that for `Cc1ccc(-c2nnc(-c3ccccc3Cl)o2)cc1S(=O)(=O)N1CCOCC1` was 969 s; that for `CN1CCCN(C(=O)COc2ccc(Cl)cc2)c2ccccc21` was 960 s.
Regarding `CCc1noc(C2(NC(=O)c3ccc(C(C)(C)C)cc3)CCCCC2)n1`, the RP-LC retention time came to 1190 s.
The value for `Cc1c(F)cccc1NC(=O)NC1CCN(c2ccc(F)cc2)C1=O` (stereo not drawn) was 866 s.
Take `CCn1c(SCC(=O)N2CCC(C(N)=O)CC2)nnc1-c1sc2ncccc2c1N`: the RP-LC retention time amounted to 603 s.
The value for `Cn1cc(SCC(=O)Nc2ccccc2C(F)(F)F)c2ccccc21` was 967 s; that for `CCOc1ccc(CC(=O)N2CCN(S(=O)(=O)c3cc4c5c(c3)CCC(=O)N5CCC4)CC2)cc1` was 823 s; that for `C=Cc1ccc(Cn2cc(S(=O)(=O)N3CCCCCC3)ccc2=O)cc1` was 1020 s.
In the case of `CN1C(=O)c2cc(C(=O)NCc3cccc(F)c3)nn2CC1(C)C(=O)NCc1ccccc1` (stereo not drawn), the RP-LC retention time was determined as 747 s.
Under `CCCOc1ccc(S(=O)(=O)NCC2CCN(C(=O)c3ccccc3F)CC2)cc1C` stands 598 s; under `Cc1noc(C2CN(C(=O)NCc3cccc(F)c3)CC23CCOCC3)n1` (stereo not drawn), 706 s; under `O=C(Cc1csc(Nc2ccc(Cl)cn2)n1)Nc1ccc(OC(F)(F)F)cc1`, 1030 s.
With `COc1ccc(C(=O)N(C)CC2(C)CCOCC2)cc1OC`, the RP-LC retention time is 677 s.
The value for `Cc1nnc(N2CCCC(C(=O)NC3CCCCCC3)C2)c2nn(-c3ccc(Cl)cc3)c(C)c12` (stereo not drawn) was 831 s.
`COc1cccc(NS(=O)(=O)c2cn(C(C)C)c3ncccc23)c1` returned an RP-LC retention time of 846 s.
Under `COc1cc(OC)c(NC(=O)N2CCc3cn(C)c4cccc(c34)C2)cc1Cl` stands 887 s.
Regarding `Cc1nc(N2CCN(c3ccccn3)CC2)nc2c1C(=O)CC(c1cccs1)C2` (stereo not drawn), the RP-LC retention time came to 732 s.
`O=C(Cc1csc(-n2cccc2)n1)N1CCC(c2nc3ccccc3[nH]2)CC1` registered an RP-LC retention time of 558 s.
Under `CCN1CCn2cc(S(=O)(=O)Nc3ccc(F)cc3Cl)cc2C1=O` stands 736 s.
Under `COc1ccc(C(C)NC(=O)Cc2cn(C)c3ncccc23)cc1` (stereo not drawn) stands 678 s; under `COc1cccc(CNC(=O)N2CCCC(C)(C(=O)NCc3ccc(F)cc3)C2)c1` (stereo not drawn), 815 s.
For `Cc1ccc(CNC(=O)C2CCN(c3cncnc3N3CCCC3)CC2)cc1`, the RP-LC retention time was determined as 662 s.
The value for `COc1cccc(OCC(O)CN2CCN(Cc3ccccc3)CC2)c1` (stereo not drawn) was 610 s.
The value for `CCn1c(=O)oc2cc(-c3noc(-c4cc(C)cc(C)c4)n3)ccc21` was 1300 s.
Regarding `O=c1c2sccc2n(Cc2nc(-c3ccc(F)c(Br)c3)no2)c(=O)n1-c1ccccc1`, the RP-LC retention time was 961 s.
The value for `CCOC(=O)c1cc(S(=O)(=O)N2CCN(c3ncccn3)CC2)[nH]n1` was 766 s.
`Cc1nc(Nc2ncc3c(n2)CC(c2ccc(F)cc2)CC3=O)nc2c(C)cccc12` (stereo not drawn) had an RP-LC retention time of 746 s.
Under `O=C(C1CCC1)N1CCCC1c1nc(C2CCOCC2)no1` (stereo not drawn) stands 624 s; under `O=C(CC(c1cccs1)n1cccc1)N1CCN(c2ccccn2)CC1` (stereo not drawn), 659 s; under `COc1cccc(-c2cc3c(=O)n(Cc4nc(-c5ccc(Br)cc5)no4)ccn3n2)c1`, 1140 s.
